Measurements as given in ChEMBL document CHEMBL1142268, “Histone deacetylase inhibitors: from bench to clinic” (J Med Chem, 2008).
Values belong to the molecule of their own block, whether it stands above or below them. The source made the active and inactive calls. No cut-off for these calls is given here.

Legend:
Histone deacetylase 1 [1] = molecular target: Histone deacetylase 1 (Mus musculus, UniProt O09106)
Description: Inhibition of mouse liver HDAC1

A549 [2] = test: cells; conditions: Homo sapiens
Description: Antiproliferative activity against human A549 cells

Histone deacetylase [3] = test: Inhibition of HDAC from human SNU16 cells; conditions: snu-16
MKN-45 = test: Antiproliferative activity against human MKN45 cells; assay type: functional, cell-based
SK-BR-3 = test: Antiproliferative activity against human SKBR3 cells; assay type: functional, cell-based
Histone deacetylase [4] = test: Inhibition of HDAC from human K562 cells; assay type: cell-based
[5] = Antiproliferative activity against human MDA435 cells; assay type: functional, cell-based; conditions: MDA-MB-435
Histone deacetylase [6] = test: Inhibition of HDAC from human Jurkat cells
Jurkat = test: Inhibition of human Jurkat cells; assay type: functional, cell-based
Histone deacetylase 1 [7] = molecular target: T1, Histone deacetylase 1 (Homo sapiens, UniProt Q13547); test: Inhibition of HDAC1
SW48 [8] = test: Antitumor activity against human SW48 cells xenografted in nude mouse model at 60 mg/kg, po; assay type: functional; conditions: read-out: TGI
SW48 [9] = test: Antitumor activity against human SW48 cells xenografted in nude mouse model at 25 mg/kg, ip; assay type: functional; conditions: route intraperitoneal, read-out: TGI
A549 [10] = test: Antitumor activity against human A549 cells xenografted in nude mouse model at 70 mg/kg, po; assay type: functional; conditions: read-out: TGI
HCT-116 [11] = test: Antitumor activity against human HCT116 cells xenografted in nude mouse model at 20 mg/kg, ip; assay type: functional; conditions: HCT-116, ip, route intraperitoneal, read-out: TGI
HCT-116 [12] = test: Inhibition of human HCT116 cells; assay type: functional, cell-based
NCI-H460 = test: Inhibition of human NCI-H460 cells; assay type: functional, cell-based
SK-OV-3 = test: Inhibition of human SKOV3 cells; assay type: functional, cell-based
NCI-H226 = test: Inhibition of human NCI-H226 cells; assay type: functional, cell-based
LOX IMVI = test: Inhibition of human LOX-IMVI cells; assay type: functional, cell-based
MDA-MB-231 = test: Inhibition of human MDA-MB-231 cells; assay type: functional, cell-based
DU-145 = test: Inhibition of human DU145 cells; assay type: functional, cell-based
[13] = Inhibition of human RFX631L cells; assay type: functional
St-4 = test: Inhibition of human St4 cells; assay type: functional, cell-based
SNB-78 = test: Inhibition of human SNB78 cells; assay type: functional, cell-based
[14] = molecular target: Histone deacetylase 8 (Homo sapiens) (UniProt Q9BY41)
Histone deacetylase 1 [15] = molecular target: T1, Histone deacetylase 1
HT-1080 = test: Inhibition of human HT1080 cells; assay type: functional, cell-based
Histone deacetylase 1 [16] = molecular target: T1, Histone deacetylase 1; remark: listed apart in the source
Description: Inhibition of human HDAC1

Histone deacetylase 1 [17] = molecular target: T1, Histone deacetylase 1; remark: listed apart in the source
Description: Inhibition of human HDAC1 assessed as histone H4 acetylation in cell based assay

[18] = molecular target: Histone deacetylase (Homo sapiens) (UniProt Q13547+O15379+Q9UBN7+Q92769+Q9UQL6+Q8WUI4+Q9BY41+Q96DB2+P56524+Q9UKV0+Q969S8); test: Inhibition of HDAC from human HeLa cells at 1000 nM; assay type: cell-based

T1 sequence (Q13547 whole entry): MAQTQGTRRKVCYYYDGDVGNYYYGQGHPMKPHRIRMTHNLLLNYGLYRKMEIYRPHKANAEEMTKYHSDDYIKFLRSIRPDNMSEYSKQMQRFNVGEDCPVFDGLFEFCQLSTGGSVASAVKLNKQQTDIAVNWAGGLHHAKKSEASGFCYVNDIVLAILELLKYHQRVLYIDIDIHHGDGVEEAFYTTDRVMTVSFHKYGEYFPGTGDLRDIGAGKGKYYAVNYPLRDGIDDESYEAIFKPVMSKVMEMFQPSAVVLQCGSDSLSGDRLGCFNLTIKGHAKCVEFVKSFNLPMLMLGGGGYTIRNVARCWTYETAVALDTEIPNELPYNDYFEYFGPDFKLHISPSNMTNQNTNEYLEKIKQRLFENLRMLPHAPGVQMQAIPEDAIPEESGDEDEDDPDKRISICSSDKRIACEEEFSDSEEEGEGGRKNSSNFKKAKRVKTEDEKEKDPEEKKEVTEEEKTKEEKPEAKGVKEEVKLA
Sequence of Histone deacetylase 1 (Mus musculus, UniProt O09106) (O09106 whole entry): as the sequence (Q13547 whole entry) above, with R8K, D399E, E424D counted along it
Sequence of Histone deacetylase 8 (Homo sapiens) (Q9BY41 whole entry): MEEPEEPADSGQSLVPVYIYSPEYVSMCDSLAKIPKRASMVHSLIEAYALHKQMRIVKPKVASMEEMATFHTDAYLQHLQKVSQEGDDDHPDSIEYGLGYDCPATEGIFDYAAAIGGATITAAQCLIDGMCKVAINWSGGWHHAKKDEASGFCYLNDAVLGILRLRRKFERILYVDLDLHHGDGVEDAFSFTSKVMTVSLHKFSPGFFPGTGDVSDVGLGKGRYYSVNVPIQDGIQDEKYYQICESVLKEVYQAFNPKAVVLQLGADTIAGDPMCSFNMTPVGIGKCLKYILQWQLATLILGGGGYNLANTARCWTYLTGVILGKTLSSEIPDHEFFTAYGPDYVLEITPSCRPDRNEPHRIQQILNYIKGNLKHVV

IC50 (Histone deacetylase 1 [1]): 121 nM
SMILES: CC(C)(c1ccccc1)c1cc(=O)[nH]c(SCCCCCC(=O)NO)n1

SMILES: CN(C)c1ccc(C(=O)NCc2ccc(/C=C/C(=O)NO)cc2)cc1
IC50 (A549 [2]): 480 nM | IC50 (Histone deacetylase [3]): 172 nM | IC50 (MKN-45): 830 nM | IC50 (SK-BR-3): 160 nM

IC50 (Histone deacetylase [4]): 9.1 nM
SMILES: CNC(=O)C(=O)CCCCCCC(=O)Nc1nc(-c2ccc(OC)cc2)cs1
IC50 [5]: 5800 nM

IC50 (Histone deacetylase [6]): 150 nM | IC50 (Jurkat): 150 nM
SMILES: O=C(/C=C/c1cccc(Cc2nc3ccccc3[nH]2)c1)NO

Activity (Histone deacetylase 1 [7]): inactive
SMILES: S=c1[nH]cc(-c2ccncc2)[nH]1

IC50 (Histone deacetylase [6]): 96 nM | IC50 (Jurkat): 310 nM
SMILES: CCC(c1ccc(/C=C/C(=O)NO)cc1)c1nc2ccccc2n1CC (configuration not stated)

IC50 (HCT-116 [12]): 2000 nM
SMILES: COc1cc(NCc2ccc(/C=C/C(=O)Nc3ccccc3N)cc2)cc(OC)c1OC
inhibition in vivo at 60 mg/kg (SW48 [8]): 16% | inhibition in vivo at 25 mg/kg (SW48 [9]): 73% | inhibition in vivo at 70 mg/kg (A549 [10]): 40% | inhibition in vivo at 20 mg/kg (HCT-116 [11]): 80%

EC50 (NCI-H460): > 50000 nM
SMILES: O=C(CCCCCCS)Nc1ccccc1

EC50 (SK-OV-3): 4500 nM | EC50 (NCI-H226): 2600 nM | EC50 (LOX IMVI): 1100 nM | EC50 (MDA-MB-231): 2300 nM | EC50 (DU-145): 4500 nM | EC50 (NCI-H460): 2000 nM | EC50 [13]: 2400 nM | EC50 (St-4): 5000 nM | EC50 (SNB-78): 9100 nM | EC50 (HCT-116 [12]): 3000 nM
SMILES: CC(C)C(=O)SCCCCCCC(=O)Nc1nc(-c2ccccc2)cs1

Activity [14]: inactive | IC50 (Histone deacetylase 1 [15]): 1500 nM
SMILES: O=C(CCc1ccccc1)Nc1ccc(C(=O)Nc2ccc(Oc3ccccc3)cc2)cc1

IC50 (Histone deacetylase [4]): 4.3 nM | IC50 (HT-1080): 670 nM
SMILES: CNC(=O)C(=O)CCCCCCC(=O)Nc1nc(-c2cccnc2)cs1
IC50 [5]: 2000 nM

IC50 (Histone deacetylase 1 [16]): 3000 nM | EC50 (Histone deacetylase 1 [17]): 5000 nM | IC50 (HCT-116 [12]): 5000 nM
SMILES: Nc1ccccc1NC(=O)CCCCCCNC(=O)c1ccc(-c2ccccc2)nc1

inhibition [18]: 23%
SMILES: O=C(/C=C/c1cccc(NS(=O)(=O)Cc2ccccc2)c1)NO

IC50 (Histone deacetylase [4]): 3.7 nM | IC50 (HT-1080): 6900 nM
SMILES: CNC(=O)C(=O)CCCCCCC(=O)Nc1cccc(-c2ccccc2)c1
IC50 [5]: 14000 nM

IC50 (Histone deacetylase [6]): 140 nM | IC50 (Jurkat): 160 nM
SMILES: O=C(/C=C/c1ccc(CCc2nc3ccccc3[nH]2)cc1)NO
